{"source": "paper PMC2810227", "about": "“3-O-Methylfunicone, a Selective Inhibitor of Mammalian Y-Family DNA Polymerases from an Australian Sea Salt Fungal Strain” (Marine Drugs, 2009)", "origin": "cited, not measured here", "key": {"[1]": {"tested_on": "family B pols, such as pols α, δ and ɛ", "set-up": "method as in PMID 467434", "details": "cited from earlier work"}, "pol α": {"tested_on": "pol α", "set-up": "method as in PMID 467434", "details": "not competing with the other three deoxynucleoside triphosphates; cited from earlier work"}}, "data": [{"smiles": "C[C@@]1(CO)[C@H](O)CC[C@@]2(C)[C@H]1CC[C@H]1C[C@@H]3C[C@@]12CC[C@]3(O)CO", "note": "[aphidicolin]", "values": [{"measurement": "mode of inhibition with the DNA template-primer", "setting": "[1]; activated DNA", "result": "uncompetitive"}, {"measurement": "mode of inhibition with respect to the dNTP substrate", "setting": "[1]", "result": "competitive"}, {"measurement": "mode of inhibition of pol α with respect to individual deoxynucleoside triphosphates", "setting": "pol α", "result": "competing with dCTP"}]}]}
